Experimental findings from ChEMBL document CHEMBL2069260, “Synthesis and evaluation of novel 2-pyridone derivatives as inhibitors of phosphodiesterase3 (PDE3): a target for heart failure and platelet aggregation” (Bioorg Med Chem Lett, 2012) are described below.

Assay type in all cases: protein assay
Assay [1] has as its target T1, Phosphodiesterase 3 (Homo sapiens, UniProt Q14432+Q13370). Kind of assay: Inhibition of PDE3 by Biomol Green quantizyme assay system.
The target of assay [2] is T1, Phosphodiesterase 3. Kind of assay: Inhibition of PDE3 at 10 uM by Biomol Green quantizyme assay system.
Assay [3] deals with T1, Phosphodiesterase 3. Briefly: Inhibition of PDE3 at 100 nmol by Biomol Green quantizyme assay system.
The target of assay [4] is T1, Phosphodiesterase 3. Kind of assay: Inhibition of PDE3 at 500 uM by Biomol Green quantizyme assay system.
Assay [5] concerns the target T1, Phosphodiesterase 3. Briefly: Inhibition of PDE3 at 1 nM by Biomol Green quantizyme assay system.

`CCOC(=O)c1cc(Cc2cccc(Cl)c2)c(=O)[nH]c1C` showed an IC50 against Phosphodiesterase 3 [1] of 7.49 µM. Besides, the results for the inhibition at Phosphodiesterase 3 [2], on Phosphodiesterase 3 [3] and on Phosphodiesterase 3 [4] were 56.9%, 30.8% and 83.2%, respectively.

`COC(=O)c1cc(Cc2ccccc2Cl)c(=O)[nH]c1C` came in with an IC50 against Phosphodiesterase 3 [1] of 2.66 µM. The inhibition against Phosphodiesterase 3 [2] was found to be 87.7%; at Phosphodiesterase 3 [3], 36.9%; on Phosphodiesterase 3 [4], 85.8%.

Take `CCOC(=O)c1cc(Cc2ccccc2Cl)c(=O)[nH]c1C`: on Phosphodiesterase 3 [4], the inhibition came out at 53.9%.

Molecule `CCOC(=O)c1cc(Cc2ccc(Cl)cc2)c(=O)[nH]c1-c1ccccc1` came in with an inhibition at Phosphodiesterase 3 [4] of 1.1%.

`CCOC(=O)c1cc(Cc2ccc(Cl)cc2)c(=O)[nH]c1C`: the inhibition against Phosphodiesterase 3 [4] is 43%.

`N#Cc1cc(Cc2ccc(Br)cc2)c(=O)[nH]c1-c1ccccc1` registered an inhibition against Phosphodiesterase 3 [4] of 4.3%.

For the molecule `CCOC(=O)c1cc(Cc2ccc(Br)cc2)c(=O)[nH]c1C`, the values for the inhibition on Phosphodiesterase 3 [5], on Phosphodiesterase 3 [3] and against Phosphodiesterase 3 [4] were 44.6%, 47.7% and 79.1%, respectively. Also, at Phosphodiesterase 3 [1], the half-maximal inhibitory concentration (IC50) was determined as 38.5 µM.

For `Cc1[nH]c(=O)c(C#N)cc1-c1ccncc1`, the inhibition at Phosphodiesterase 3 [2] amounted to 91.7%; against Phosphodiesterase 3 [4] it was 90.6%.

As for `CCOC(=O)c1cc(Cc2ccc(C)cc2)c(=O)[nH]c1-c1ccccc1`, the inhibition against Phosphodiesterase 3 [4] is 42.2%.

Take `Cc1[nH]c(=O)c(Cc2ccc(Br)cc2)cc1C#N`: at Phosphodiesterase 3 [4], the inhibition stood at 17.3%.

For the molecule `Cc1[nH]c(=O)c(Cc2ccccc2)cc1C#N`, the inhibition against Phosphodiesterase 3 [5] was determined as 35.4%; against Phosphodiesterase 3 [3], 38.5%; against Phosphodiesterase 3 [4] it was 84.6%. The concentration for half-maximal inhibition (IC50) at Phosphodiesterase 3 [1] came out at 128.3 µM.

For `Cc1[nH]c(=O)c(Cc2ccccc2Cl)cc1C#N`, the inhibition at Phosphodiesterase 3 [5] came out at 0%; at Phosphodiesterase 3 [3] it was 7.69%; on Phosphodiesterase 3 [4], 80.4%. In addition, the IC50 on Phosphodiesterase 3 [1] amounted to 423.2 µM.

In turn, `Cc1[nH]c(=O)c(Cc2ccc(Cl)cc2)cc1C#N` gave an inhibition against Phosphodiesterase 3 [4] of 41.2%.

In turn, `CCOC(=O)c1cc(Cc2ccccc2)c(=O)[nH]c1C` came in with an inhibition at Phosphodiesterase 3 [4] of 42.9%.

Take `Cc1ccc(Cc2cc(C#N)c(C)[nH]c2=O)cc1`: the values for the inhibition against Phosphodiesterase 3 [5], against Phosphodiesterase 3 [2] and against Phosphodiesterase 3 [4] were 34%, 72.4% and 85.9%, respectively. Further, the IC50 at Phosphodiesterase 3 [1] worked out at 1.68 µM.

With `CCCc1cc(C(=O)OCC)c(C)[nH]c1=O`, the inhibition at Phosphodiesterase 3 [5] turned out to be 6.15%; on Phosphodiesterase 3 [3] it was 40%; against Phosphodiesterase 3 [4], 78.2%. Besides, on Phosphodiesterase 3 [1], the half-maximal inhibitory concentration (IC50) was determined as 125.1 µM.

With `COC(=O)c1cc(Cc2ccccc2)c(=O)[nH]c1C`, the inhibition at Phosphodiesterase 3 [5] came out at 21.5%; on Phosphodiesterase 3 [3] it was 36.9%; against Phosphodiesterase 3 [4], 76.7%. Besides, the IC50 on Phosphodiesterase 3 [1] amounted to 163.5 µM.

Consider `CCOC(=O)c1cc(Cc2cccc(Cl)c2)c(=O)[nH]c1-c1ccccc1`, for which the inhibition turned out to be 0% at Phosphodiesterase 3 [5], 20% on Phosphodiesterase 3 [2] and 80.9% against Phosphodiesterase 3 [4]. In addition, the IC50 against Phosphodiesterase 3 [1] is 312.4 µM.

Turning to `CCOC(=O)c1cc(Cc2ccc(C)cc2)c(=O)[nH]c1C`, the results for the inhibition on Phosphodiesterase 3 [5], on Phosphodiesterase 3 [2] and on Phosphodiesterase 3 [4] were 0%, 35.4% and 80.1%, respectively. Also, at Phosphodiesterase 3 [1], the IC50 came to 172.5 µM.

Regarding `CCOC(=O)c1cc(Cc2ccc(Br)cc2)c(=O)[nH]c1-c1ccccc1`, on Phosphodiesterase 3 [1], the IC50 amounted to 8.47 µM. The inhibition against Phosphodiesterase 3 [2] stood at 55.4%; at Phosphodiesterase 3 [3], 21.5%; at Phosphodiesterase 3 [4] it was 74.1%.

On to `Cc1[nH]c(=O)c(Cc2ccc(Cl)cc2Cl)cc1C#N`, for which the inhibition against Phosphodiesterase 3 [5] was found to be 0%; on Phosphodiesterase 3 [2], 23.1%; at Phosphodiesterase 3 [4], 79.5%. In addition, at Phosphodiesterase 3 [1], the concentration for half-maximal inhibition (IC50) was 280.7 µM.

For the molecule `CCOC(=O)c1cc(Cc2ccccc2)c(=O)[nH]c1-c1ccccc1`, the values for the inhibition at Phosphodiesterase 3 [5], against Phosphodiesterase 3 [2] and on Phosphodiesterase 3 [4] were 33.9%, 55.4% and 83%, respectively. This molecule also showed a half-maximal inhibitory concentration (IC50) on Phosphodiesterase 3 [1] of 7.3 µM.

For `N#Cc1cc(Cc2ccccc2)c(=O)[nH]c1-c1ccccc1`, the inhibition against Phosphodiesterase 3 [4] turned out to be 22.5%.

`CCOC(=O)c1cc(Cc2ccc(Cl)cc2Cl)c(=O)[nH]c1C` registered a 50% inhibitory concentration (IC50) against Phosphodiesterase 3 [1] of 172.13 µM. Moreover, the inhibition is 35.4% at Phosphodiesterase 3 [2], 30.8% against Phosphodiesterase 3 [3] and 78.3% against Phosphodiesterase 3 [4].
